Series [1] concerns the target T1, human cloned dopamine D3 receptors (Homo sapiens, UniProt P35462).
T1 construct: expressed in transfected cells; host or cells: CHO cells
In words: Inhibition of the binding of [3H]Spiperone to human D3 receptors. The note with it: 100 nM; [3H]Spiperone 0.3 nM, membranes of CHO-cells; read-out: D3-bind. % inhibition of binding at 100 nM. The protocol: Inhibition of the Binding of [^3H]Spiperone to Human D3 Receptors
By this method the inhibition by drugs of the binding [^3H]Spiperone (0.3 nM) to membranes of human cloned dopamine D3 receptors expressed in CHO-cells is determined in vitro. Method modified from MacKenzie et al. Eur. J. Pharm.-Mol. Pharm. Sec. 1994, 266, 79–85.

In series [2] the target is T2, human cloned dopamine D4.2 receptors (Homo sapiens, UniProt P21917, DEL265-296).
T2 construct: expressed in transfected cells; host or cells: CHO cells
T2 sequence (P21917 with tags, fused parts or gaps DEL265-296): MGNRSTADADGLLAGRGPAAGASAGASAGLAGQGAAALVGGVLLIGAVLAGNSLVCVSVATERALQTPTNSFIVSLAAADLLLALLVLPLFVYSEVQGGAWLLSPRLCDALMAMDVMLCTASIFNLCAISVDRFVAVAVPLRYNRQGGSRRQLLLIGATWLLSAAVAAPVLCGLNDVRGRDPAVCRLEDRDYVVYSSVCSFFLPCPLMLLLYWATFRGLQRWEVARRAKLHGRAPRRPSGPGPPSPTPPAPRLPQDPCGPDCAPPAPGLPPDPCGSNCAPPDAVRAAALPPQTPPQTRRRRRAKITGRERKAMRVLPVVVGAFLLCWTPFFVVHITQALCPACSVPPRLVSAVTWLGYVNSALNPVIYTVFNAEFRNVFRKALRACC
In words: Inhibition of the binding of [3H]YM-09151-2 to human dopamine D4 receptors. The note with it: [3H]YM-09151-2 0.06 nM, membranes of CHO-cells; read-out: D4-bind. IC50. The protocol: Inhibition of the Binding of [^3H]YM-09151-2 to Human Dopamine D4 Receptors
By this method the inhibition by drugs of the binding of [^3H]YM-09151–2 (0.06 nM) to membranes of human cloned dopamine D4.2 receptors expressed in CHO-cells is determined in vitro. Method modified from NEN Life Science Products, Inc., technical data certificate PC2533-10/96.

The subject of a further series is alpha-1 receptors. In words: Inhibition of binding of [3H]Prazosine to rat alpha-1 receptors. The note with it: 100 nM; [3H]Prazosine 0.25 nM, membranes from rat brain. The protocol: Inhibition of Binding of [^3H]Prazosine to Rat Alpha-1 Receptors
By this method the inhibition by drugs of the binding of [^3H]Prazosine (0.25 nM) to alpha-1 receptors in membranes from rat brain is determined in vitro. Method modified from Hyttel et al. J. Neurochem. 1985, 44, 1615–1622.

Where a name gives a salt, the structure may show the parent alone.

These results are taken from US7074796B2 (H. Lundbeck A/S, priority 1999, dated 2006).

As a reminder, the melting point is the temperature of the solid-liquid transition. The term inhibition denotes how much of the control response was suppressed. In general, IC50 refers to the midpoint of a concentration-inhibition curve.

T1 sequence (P35462 whole entry): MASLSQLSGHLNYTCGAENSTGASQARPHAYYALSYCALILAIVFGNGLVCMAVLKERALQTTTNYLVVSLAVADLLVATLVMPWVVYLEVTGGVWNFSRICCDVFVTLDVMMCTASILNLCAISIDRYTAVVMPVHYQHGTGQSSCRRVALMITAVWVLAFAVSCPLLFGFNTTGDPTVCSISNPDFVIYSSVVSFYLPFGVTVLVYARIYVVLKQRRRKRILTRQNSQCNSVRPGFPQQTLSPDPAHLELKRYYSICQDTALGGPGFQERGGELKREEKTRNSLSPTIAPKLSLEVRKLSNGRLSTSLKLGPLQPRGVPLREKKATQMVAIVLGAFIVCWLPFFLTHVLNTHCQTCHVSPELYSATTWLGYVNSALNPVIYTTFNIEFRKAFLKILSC

In turn, `Clc1cccc(N2CCN(CCCCC3CCc4ccccc43)CC2)c1Cl` (stereo not shown) (as salt: oxalate) [Compound 3, 1-(2,3-Dichlorophenyl)-4-[4-(indan-1-yl)butyl]piperazine] had a melting point of 171 to 176 °C.

Compound `Clc1cccc(N2CCN(CCCCCN3CCc4ccccc43)CC2)c1Cl` (as salt: hydrochloride) [Compound 2c, 1-{5-[4-(2,3-Dichlorophenyl)piperazin-1-yl]pentyl}-2,3-dihydro-1H-indole] yielded a melting point of 219 to 228 °C.

Compound `O=C1CCc2ccccc2N1CCCCN1CCN(c2cccc(Cl)c2Cl)CC1` (as salt: hydrochloride) [Compound 6, 1-{4-[4-(2,3-Dichlorophenyl)piperazin-1-yl]butyl}-3,4-dihydroquinolin-2(1H)-one] registered a melting point of 234 to 235 °C.

`O=C(CCCCN1CCN(c2cccc(Cl)c2Cl)CC1)N1CCc2cc(F)ccc21` [Compound 7c, 5-[4-(2,3-Dichlorophenyl)piperazin-1-yl]-1-(5-fluoro-2,3-dihydro-1H-indol-1-yl)pentan-1-one]: the inhibition at 0.1 µM in series [1] came out at 92%. Moreover, the IC50 in series [2] was 61 nM. Moreover, the “Alpha-1 % inhibition of binding at 100 nM” value in the series with alpha-1 receptors is on record as 45%.

As to `Clc1ccc2c(SCCN3CCN(c4cccc(Cl)c4Cl)CC3)c[nH]c2c1` (as salt: oxalate) [Compound 4, 6-Chloro-3-{2-[4-(2,3-dichlorophenyl)piperazin-1-yl]ethylsulfanyl}-1H-indole], the melting point was 137 to 141 °C.
